Measurements: ChEMBL document CHEMBL4819062, “Novel iodinated quinazolinones bearing sulfonamide as new scaffold targeting radiation induced oxidative stress” (Bioorg Med Chem Lett, 2021)

Tests used:
[1] = Antioxidant activity assessed as DPPH radical scavenging activity; type: functional
[2] = target: T1, Nuclear factor erythroid 2-related factor 2 (Mus musculus) (UniProt Q60795); assay: Activation of Nrf2 in mouse Hepa1c1c7 cells assessed as increase in NQO1 activity at 0.2 uM; type: cell-based; conditions: filed as activator
T1 sequence (whole entry): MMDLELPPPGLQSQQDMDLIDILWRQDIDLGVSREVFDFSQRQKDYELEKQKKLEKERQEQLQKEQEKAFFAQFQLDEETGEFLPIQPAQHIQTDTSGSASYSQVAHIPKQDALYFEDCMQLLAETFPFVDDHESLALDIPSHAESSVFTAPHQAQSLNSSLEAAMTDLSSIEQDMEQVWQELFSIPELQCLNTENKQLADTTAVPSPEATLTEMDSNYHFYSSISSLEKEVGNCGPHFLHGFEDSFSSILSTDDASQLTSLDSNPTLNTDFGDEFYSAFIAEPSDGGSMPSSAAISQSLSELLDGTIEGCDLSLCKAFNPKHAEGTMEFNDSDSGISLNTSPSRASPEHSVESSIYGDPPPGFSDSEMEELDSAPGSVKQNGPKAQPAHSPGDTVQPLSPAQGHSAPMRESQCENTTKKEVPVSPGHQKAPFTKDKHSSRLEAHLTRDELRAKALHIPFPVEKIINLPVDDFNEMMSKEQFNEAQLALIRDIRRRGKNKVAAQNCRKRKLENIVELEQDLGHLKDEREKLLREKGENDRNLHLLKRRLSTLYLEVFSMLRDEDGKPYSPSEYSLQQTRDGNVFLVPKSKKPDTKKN

[3] = target: T1, Nuclear factor erythroid 2-related factor 2 (Mus musculus); assay: Activation of Nrf2 in mouse Hepa1c1c7 cells assessed as increase in NQO1 activity at 1.9 uM; type: cell-based; conditions: filed as activator
[4] = target: T1, Nuclear factor erythroid 2-related factor 2 (Mus musculus); assay: Activation of Nrf2 in mouse Hepa1c1c7 cells assessed as increase in NQO1 activity at 7.5 uM; type: cell-based; conditions: filed as activator
[5] = target: T1, Nuclear factor erythroid 2-related factor 2 (Mus musculus); assay: Activation of Nrf2 in mouse Hepa1c1c7 cells assessed as increase in NQO1 activity at 0.9 uM; type: cell-based; conditions: filed as activator
[6] = target: T1, Nuclear factor erythroid 2-related factor 2 (Mus musculus); assay: Activation of Nrf2 in mouse Hepa1c1c7 cells assessed as increase in NQO1 activity at 0.5 uM; type: cell-based; conditions: filed as activator
[7] = target: T1, Nuclear factor erythroid 2-related factor 2 (Mus musculus); assay: Activation of Nrf2 in mouse Hepa1c1c7 cells assessed as increase in NQO1 activity at 15 uM; type: cell-based; conditions: filed as activator
[8] = target: T1, Nuclear factor erythroid 2-related factor 2 (Mus musculus); assay: Activation of Nrf2 in mouse Hepa1c1c7 cells assessed as increase in NQO1 activity at 3.75 uM; type: cell-based; conditions: filed as activator
[9] = target: T1, Nuclear factor erythroid 2-related factor 2 (Mus musculus); assay: Activation of Nrf2 in mouse Hepa1c1c7 cells assessed as increase in NQO1 activity at 30 uM; type: cell-based; conditions: filed as activator
[10] = target: T1, Nuclear factor erythroid 2-related factor 2 (Mus musculus); assay: Activation of Nrf2 in mouse Hepa1c1c7 cells assessed as increase in NQO1 activity at 1.25 uM; type: cell-based; conditions: filed as activator
[11] = target: T1, Nuclear factor erythroid 2-related factor 2 (Mus musculus); assay: Activation of Nrf2 in mouse Hepa1c1c7 cells assessed as increase in NQO1 activity at 5 uM; type: cell-based; conditions: filed as activator
[12] = target: T1, Nuclear factor erythroid 2-related factor 2 (Mus musculus); assay: Activation of Nrf2 in mouse Hepa1c1c7 cells assessed as increase in NQO1 activity at 0.625 uM; type: cell-based; conditions: filed as activator
[13] = target: T1, Nuclear factor erythroid 2-related factor 2 (Mus musculus); assay: Activation of Nrf2 in mouse Hepa1c1c7 cells assessed as increase in NQO1 activity at 2.5 uM; type: cell-based; conditions: filed as activator
[14] = target: T1, Nuclear factor erythroid 2-related factor 2 (Mus musculus); assay: Activation of Nrf2 in mouse Hepa1c1c7 cells assessed as increase in NQO1 activity at 0.313 uM; type: cell-based; conditions: filed as activator

IC50 [1] [µM]	Activity [2]	Activity [3]	Activity [4]	Activity [5]	Activity [6]	Activity [7]	Activity [8]	Activity [9]	Activity [10]	Activity [11]	Activity [12]	Activity [13]	Activity [14]	Compound
57.1	–	–	–	–	–	–	–	–	–	–	–	–	–	NS(=O)(=O)c1ccc(-n2c(S)nc3c(I)cc(I)cc3c2=O)cc1
98.9	1.05	1.12	1.23	1.11	1.06	1.8	1.13	–	–	–	–	–	–	NS(=O)(=O)c1ccc(-n2c(SCC(=O)Nc3ccccc3F)nc3c(I)cc(I)cc3c2=O)cc1
37.8	1.01	1.02	1.08	1	1	1.13	1.09	1.17	–	–	–	–	–	NS(=O)(=O)c1ccc(-n2c(SCC(=O)Nc3ccc(Br)cc3Br)nc3c(I)cc(I)cc3c2=O)cc1
128	–	–	–	–	–	–	–	–	–	–	–	–	–	O=C1O[C@H]([C@@H](O)CO)C(O)=C1O [ASCORBIC ACID]
165	1	0.99	1.07	1	0.99	1.19	1.03	1.35	–	–	–	–	–	NS(=O)(=O)c1ccc(-n2c(SCC(=O)Nc3cccnc3)nc3c(I)cc(I)cc3c2=O)cc1
85	–	–	–	–	–	–	–	–	0.83	0.51	0.94	0.76	0.96	NS(=O)(=O)c1ccc(-n2c(SCC(=O)Nc3ccccn3)nc3c(I)cc(I)cc3c2=O)cc1
161	1	1.04	1	1.06	1.02	1	1.02	1.02	–	–	–	–	–	NS(=O)(=O)c1ccc(-n2c(SCC(=O)Nc3c(Cl)cc(Cl)cc3Cl)nc3c(I)cc(I)cc3c2=O)cc1
59.4	1.01	1.06	1.21	1.07	1.04	1.31	1.1	1.47	–	–	–	–	–	NS(=O)(=O)c1ccc(-n2c(SCC(=O)Nc3cccc(F)c3)nc3c(I)cc(I)cc3c2=O)cc1
